Tests used:
Assay type in all cases: ADME
[1] = biological target: T1, Cytochrome P450 3A4 (Homo sapiens, UniProt P08684); assay: Time dependent inhibition of CYP3A4 in human liver microsomes assessed as conversion of testosterone to 6beta-hydroxytestosterone at 0.01 to 100 uM preincubated for 60 mins followed by testosterone treatment measured after 10 mins by refined CYP450 IC50 shift assay in presence of NADPH
[2] = biological target: T1, Cytochrome P450 3A4; assay: Time dependent inhibition of CYP3A4 in human liver microsomes assessed as conversion of testosterone to 6beta-hydroxytestosterone at 0.01 to 100 uM preincubated for 60 mins followed by testosterone treatment measured after 10 mins by LC-MS/MS analysis
[3] = biological target: T1, Cytochrome P450 3A4; assay: Time dependent inhibition of CYP3A4 in human liver microsomes assessed as conversion of testosterone to 6beta-hydroxytestosterone at 0.01 to 100 uM preincubated for 60 mins followed by testosterone treatment measured after 10 mins by LC-MS/MS analysis in presence of NADPH
[4] = biological target: T1, Cytochrome P450 3A4; assay: Time dependent inhibition of CYP3A4 in human liver microsomes assessed as conversion of testosterone to 6beta-hydroxytestosterone at 0.01 to 100 uM preincubated for 60 mins followed by testosterone treatment measured after 10 mins by refined CYP450 IC50 shift assay

Measured: inhibition (INH)

T1 sequence (P08684 whole entry): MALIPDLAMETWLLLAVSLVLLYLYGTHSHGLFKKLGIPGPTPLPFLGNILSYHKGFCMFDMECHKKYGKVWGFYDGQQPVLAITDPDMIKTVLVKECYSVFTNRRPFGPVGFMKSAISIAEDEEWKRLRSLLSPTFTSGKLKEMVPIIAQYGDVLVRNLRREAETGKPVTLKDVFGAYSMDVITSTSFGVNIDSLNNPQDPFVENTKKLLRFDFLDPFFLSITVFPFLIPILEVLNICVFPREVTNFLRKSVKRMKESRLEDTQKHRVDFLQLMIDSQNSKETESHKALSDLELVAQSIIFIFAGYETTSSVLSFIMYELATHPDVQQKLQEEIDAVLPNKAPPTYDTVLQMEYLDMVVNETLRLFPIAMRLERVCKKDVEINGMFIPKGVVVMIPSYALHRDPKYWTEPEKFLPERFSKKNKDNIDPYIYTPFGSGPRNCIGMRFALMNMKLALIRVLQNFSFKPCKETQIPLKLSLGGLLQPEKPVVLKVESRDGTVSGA

C/C(=C\COc1c2ccoc2cc2oc(=O)ccc12)CCC(O)C(C)(C)O (stereo not given) [DIHYDROXYBERGAMOTTIN]
Active: [1] | [2] | [3] | [4]

O=C(c1ccc(OCCN2CCCCC2)cc1)c1c(-c2ccc(O)cc2)sc2cc(O)ccc12 [RALOXIFENE]
Active: [1] | [2] | [3] | [4]

CNCCC(Oc1ccc(C(F)(F)F)cc1)c1ccccc1 (stereo not given) [FLUOXETINE]
Active: [1] | [2] | [3] | [4]

CC[C@H]1OC(=O)[C@H](C)[C@@H](O[C@H]2C[C@@](C)(OC)[C@@H](O)[C@H](C)O2)[C@H](C)[C@@H](O[C@@H]2O[C@H](C)C[C@H](N(C)C)[C@H]2O)[C@](C)(O)C[C@@H](C)C(=O)[C@H](C)[C@@H](O)[C@]1(C)O [ERYTHROMYCIN]
Active: [1] | [2] | [3] | [4]

CC(C)=CCC/C(C)=C/COc1c2ccoc2cc2oc(=O)ccc12 [BERGAMOTTIN]
Active: [1] | [2] | [3] | [4]
